One substance from US20260132165A1, “MODIFIED NUCLEOSIDE ANALOGUE AND USE THEREOF, AND NUCLEOSIDE ANALOGUE-CONTAINING DOUBLE-STRANDED OLIGONUCLEOTIDE AND USE THEREOF” (RIGERNA THERAPEUTICS (BEIJING) CO., LTD., priority 2023, published 2026) can be followed below.

The subject of this data set is target gene SOD1. Briefly: Test Example 7: inhibitory activity of lipid conjugated siRNA sequences on SOD1 in mouse adipose and muscle tissues (tail vein injection). The data set is classed as in vivo, C57BL/6j mice. As to the method: RNA extraction: the above tissue samples were taken out from the RNAlater, and smashed for 60 s in Tissuelyser type II full-automatic tissue homogenizer, and total RNAs of various tissue samples were extracted using the full-automatic nucleic acid extraction instrument and the nucleic acid extraction kit from Zhejiang Hanwei Science and Technology Co. Ltd. according to methods described in instructions.
Reverse transcription reaction: 1 μg of the extracted total RNAs of the tissue samples were taken, and configured into 20 μL of reverse transcription system according to a method described in kit instructions by using a reverse transcription kit (Reverse Transcription System, A3500) from Promega Corporation and selecting Oligo (dT)15 reverse transcription primers, and the reverse transcription reaction was completed. After the reaction was ended, 80 μL of RNase-Free water was added into the reverse transcription system to provide cDNA solution for Real-time PCR detection.
Real-time PCR detection: 20 μL of Real-time PCR reaction system per PCR detection well was configured according to a method described in kit instructions using SYBR™ Select Master Mix (Catalog number: 4472908) reagent from ABI company. Each detection system contained 5 μL of cDNA template obtained from the above reverse transcription reaction, 10 μL of SYBR™ Select Master Mix, 0.5 μL of 10 μM upstream primers, 0.5 μL of 10 μM downstream primers, and 4 μL of RNase-Free H2O. The configured reaction system was subjected to Real-time PCR amplification on ABI StepOnePlus PCR instrument by a three-step method, wherein an amplification procedure was pre-denaturation at 95° C. for 10 min, then denaturation at 95° C. for 30 s, annealing at 60° C. for 30 s, and extension at 72° C. for 30 s; and processes of denaturation, annealing, and extension were repeated for 40 cycles. Gene expression differences were calculated by the ΔΔCt method after completion of the procedure.
In the real-time fluorescence quantitative PCR method, relative quantitative calculation of remaining expression level and inhibition rate of gene mRNA of interest in various test groups was performed by the ΔΔCt method, and the calculation method is as follows:
The present test example evaluated, by an evaluation method for inhibitory activity on a target gene in mice, the inhibitory activity of siRNA sequence RZ899090 with the sense strand with the NM073 conjugation at Position 4, siRNA sequence RZ899091 with the sense strand with the NM074 conjugation at Position 4, siRNA sequence RZ899078 with the sense strand with the NM202 conjugation at Position 6 and siRNA reference sequence RZ899093 with the sense strand with the Uhd conjugation at Position 4, and siRNA reference sequence RZ899076 with the sense strand with the NM200 conjugation at Position 4 on the target gene SOD1 of interest in mice. The above conjugation vectors were different in that NM073 was C18 aliphatic chain, NM074 was C20 aliphatic chain, and NM0202 and NM0200 were C22 aliphatic chains.
6-8 Week-old C57BL/6j mice were randomly grouped by body weight, 15 per group, 6 groups in total. Mice in each group were dosed with the above siRNA conjugates by tail vein injection, with an administration dose of 5 mg/kg per mouse, and an administration volume of 150 μL. PBS control group was administered with the same volume of siRNA conjugate-free PBS solution. The day of administration was recorded as D0, and 5 mice in each group were sacrificed on D14, D28 and D49 after administration. Tissues such as paragonadal fat, left hind leg quadriceps muscle, heart, liver, and kidney were respectively taken and stored in the RNAlater. RNA extraction, reverse transcription, and real-time fluorescence quantitative detection were performed on various tissues according to the above method, and gene expression differences were calculated by the above ΔΔCt method.

“RZ899078: siRNA sequence with the sense strand with the NM202 (C22) conjugation at Position 6; SEQ ID NO: 20 / 24 (sense UUUUANUCCUCACUCUAAA; antisense UUUAGAGUGAGGAUUAAAAUG; NM202 (C22) conjugate at sense position 6; modified_base 1..2 OTHER; 2'-methoxy and 5'-thiophosphate modified nucleotides; modified_base 3..5 OTHER; 2'-methoxy modified nucleotides; modified_base 6 OTHER; n is the synthetic nucleotide analog NM202 as described in the disclosure.; modified_base 7..10 OTHER; 2'-fluoro modified nucleotides; modified_base 11..19 OTHER; modified_base 1 OTHER; 2'-methoxy and 5'-thiovinylphosphonate modified nucleotide; modified_base 2 OTHER; 2'-fluoro and 5'-thiophosphate modified nucleotide; modified_base 6 OTHER;)”: under “liver and kidney (non-target tissues), tail vein 5 mg/kg, D28 and D49”, the “inhibitory action on liver and kidney tissues” value is on record as “no inhibitory action”. In addition, the “D 14 % Mean value of inhibition rate” value is, setting by setting: (mouse adipose tissues (paragonadal fat), tail vein injection 5 mg/kg, D14) 91.53%; (mouse heart tissues, tail vein injection 5 mg/kg, D14) 83.53%; (mouse skeletal muscle tissues (left hind leg quadriceps muscle), tail vein injection 5 mg/kg, D14) 71.63%. Moreover, the “D 28 % Mean value of inhibition rate” value was 75.82% (mouse adipose tissues (paragonadal fat), tail vein injection 5 mg/kg, D28); 79.52% (mouse heart tissues, tail vein injection 5 mg/kg, D28); 69.78% (mouse skeletal muscle tissues (left hind leg quadriceps muscle), tail vein injection 5 mg/kg, D28). Further, the “D 49 % Mean value of inhibition rate” value is 65.16% (mouse adipose tissues (paragonadal fat), tail vein injection 5 mg/kg, D49) and 63.42% (mouse heart tissues, tail vein injection 5 mg/kg, D49). Moreover, under “mouse adipose tissues, tail vein 5 mg/kg, D14”, the “inhibitory activity compared with the NM200 conjugated reference sequence RZ899076” value was “on par”. Also, the “inhibitory activity compared with Uhd conjugated reference sequence RZ899093 and NM200 conjugated reference sequence RZ899076” value (mouse heart tissues, tail vein 5 mg/kg, D14, D28 and D49) is on record as “superior inhibitory activity”. Further, the “Kidney D 14 % Mean value of inhibition rate” value (mouse kidney, tail vein injection 5 mg/kg, D14) was −7.92%. Further, the “Kidney D 28 % Mean value of inhibition rate” value (mouse kidney, tail vein injection 5 mg/kg, D28) amounted to 1.46%. For the same substance, the “Kidney D 49 % Mean value of inhibition rate” value (mouse kidney, tail vein injection 5 mg/kg, D49) is reported as 2.03%. Also, the “Liver D 14 % Mean value of inhibition rate” value (mouse liver, tail vein injection 5 mg/kg, D14) turned out to be 20.63%. In addition, the “Liver D 28 % Mean value of inhibition rate” value (mouse liver, tail vein injection 5 mg/kg, D28) was 15.46%. Besides, for the setting “mouse liver, tail vein injection 5 mg/kg, D49”, the “Liver D 49 % Mean value of inhibition rate” value is −11.54%. For the setting “skeletal muscle, tail vein 5 mg/kg”, the “inhibitory activity in mouse skeletal muscle tissues” value is listed as “highest inhibitory activity in muscles”.
